Data published in the supplement of paper PMC11451515.

Test system: NOMO1
Assay: cell viability relative to DMSO control; higher = less cytotoxic
Details: 48 h
In short: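 NOMO1 or SEM (500 cells/well) or P12-Ichikawa (1000 cells/well) leukemia cells were adapted for at least four passages in each medium. They were seeded in 1536-well plates (5 μl) and pin-dosed with library compounds in DMSO over an 11-point threefold series, 47 μM to 0.79 nM. CellTiter-Glo One luminescence was read after 48 h at 37°C. Viability is the per-plate percentage relative to DMSO wells, with cell-free wells as background.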

[1] = HPLM + 10% dialyzed FBS, 0.000781 µM
[2] = HPLM + 10% dialyzed FBS, 0.00234 µM
[3] = HPLM + 10% dialyzed FBS, 0.00702 µM
[4] = HPLM + 10% dialyzed FBS, 0.0211 µM
[5] = HPLM + 10% dialyzed FBS, 0.0632 µM
[6] = HPLM + 10% dialyzed FBS, 0.19 µM
[7] = HPLM + 10% dialyzed FBS, 0.569 µM
[8] = HPLM + 10% dialyzed FBS, 1.71 µM
[9] = HPLM + 10% dialyzed FBS, 5.12 µM
[10] = HPLM + 10% dialyzed FBS, 15.4 µM
[11] = HPLM + 10% dialyzed FBS, 46.1 µM
[12] = RPMI 5 mM glucose + 10% FBS, 0.000781 µM
[13] = RPMI 5 mM glucose + 10% FBS, 0.00234 µM
[14] = RPMI 5 mM glucose + 10% FBS, 0.00702 µM
[15] = RPMI 5 mM glucose + 10% FBS, 0.0211 µM
[16] = RPMI 5 mM glucose + 10% FBS, 0.0632 µM
[17] = RPMI 5 mM glucose + 10% FBS, 0.19 µM
[18] = RPMI 5 mM glucose + 10% FBS, 0.569 µM
[19] = RPMI 5 mM glucose + 10% FBS, 1.71 µM
[20] = RPMI 5 mM glucose + 10% FBS, 5.12 µM
[21] = RPMI 5 mM glucose + 10% FBS, 15.4 µM
[22] = RPMI 5 mM glucose + 10% FBS, 46.1 µM
[23] = RPMI 5 mM glucose + 10% dialyzed FBS, 0.000781 µM
[24] = RPMI 5 mM glucose + 10% dialyzed FBS, 0.00234 µM
[25] = RPMI 5 mM glucose + 10% dialyzed FBS, 0.00702 µM
[26] = RPMI 5 mM glucose + 10% dialyzed FBS, 0.0211 µM
[27] = RPMI 5 mM glucose + 10% dialyzed FBS, 0.0632 µM
[28] = RPMI 5 mM glucose + 10% dialyzed FBS, 0.19 µM
[29] = RPMI 5 mM glucose + 10% dialyzed FBS, 0.569 µM
[30] = RPMI 5 mM glucose + 10% dialyzed FBS, 1.71 µM
[31] = RPMI 5 mM glucose + 10% dialyzed FBS, 5.12 µM
[32] = RPMI 5 mM glucose + 10% dialyzed FBS, 15.4 µM
[33] = RPMI 5 mM glucose + 10% dialyzed FBS, 46.1 µM

SMILES	cell viability [1] [%]	cell viability [2] [%]	cell viability [3] [%]	cell viability [4] [%]	cell viability [5] [%]	cell viability [6] [%]	cell viability [7] [%]	cell viability [8] [%]	cell viability [9] [%]	cell viability [10] [%]	cell viability [11] [%]	cell viability [12] [%]	cell viability [13] [%]	cell viability [14] [%]	cell viability [15] [%]	cell viability [16] [%]	cell viability [17] [%]	cell viability [18] [%]	cell viability [19] [%]	cell viability [20] [%]	cell viability [21] [%]	cell viability [22] [%]	cell viability [23] [%]	cell viability [24] [%]	cell viability [25] [%]	cell viability [26] [%]	cell viability [27] [%]	cell viability [28] [%]	cell viability [29] [%]	cell viability [30] [%]	cell viability [31] [%]	cell viability [32] [%]	cell viability [33] [%]
CC1(C)O[C@@H]2C[C@H]3[C@@H]4C[C@H](F)C5=CC(=O)C=C[C@]5(C)[C@@]4(F)[C@@H](O)C[C@]3(C)[C@]2(C(=O)CO)O1	105	112	121	122	121	101	101	118	112	108	94	115	101	108	108	112	114	106	102	104	97.9	91.7	109	109	98.3	114	112	102	96.7	102	110	97.8	86.5
CC(C)(C)OC(=O)N[C@H]1CCCCC/C=C\[C@@H]2C[C@@]2(C(=O)N[S+](=O)([O-])C2CC2)NC(=O)[C@@H]2C[C@@H](OC(=O)N3Cc4cccc(F)c4C3)CN2C1=O	125	115	124	114	108	121	103	120	114	111	111	96.8	93.3	97.2	100	114	106	113	99.9	94	101	102	97.4	92.7	111	98.5	110	100	123	109	104	90.1	103
CC1CNc2c(cccc2[S+](=O)([O-])N[C@@H](CCCNC(=N)N)C(=O)N2CC[C@@H](C)C[C@@H]2C(=O)O)C1 (stereo partly specified)	117	101	106	106	104	94.9	106	114	101	112	123	98.3	87.9	99.4	96.9	103	98.2	100	93.3	96.6	100	95.1	86.3	87.7	101	107	97.6	94.3	101	110	99.6	111	102
C[C@H]1COC2=C3N1\C=C(C(O)=O)/C(=O)C3=CC(=C2N4CCN(C)CC4)F	124	123	128	114	122	106	113	108	94.8	85.9	61												122	112	127	124	124	115	112	112	98.1	98.7	72.9
